The source of these data is patent US9090628B2, “Benzoxazepin compounds selective for PI3K P110 delta and methods of use” (GENENTECH, INC., priority 2011, dated 2015).

In one assay the target is p110 delta (Homo sapiens (Human), UniProt O00329). Description: PI3K isoform inhibition assay, p110 delta (fluorescence polarization displacement). Format: biochemical. As to the method: (§1) PI3K enzymatic activity was assayed by measuring the amount of product phosphatidylinositol 3,4,5-phosphate (PIP3) formed from substrate 4,5 phosphatidylinositol 4,5-phosphate (PIP2) using a fluorescence polarization displacement assay. The decrease in fluorescence polarization of a fluorescent PIP3 probe is measured as it is displaced from a PIP3-binding protein GRP-1 detector by PI3K-catalyzed product. […] The kinase reactions were initiated by the addition of 40 ng/mL p110α/p85α, 300 ng/mL p110β/p85α, 40 ng/mL p110γ, or 40 ng/mL p110δ/p85α (Upstate Group, Millipore; Dundee, UK), and 10 μM PIP2 (Echelon Biosciences) to the wells. […] After 60 minutes of incubation at room temperature to allow equilibration of labeled and unlabeled PIP3 binding, the parallel and perpendicular components of the fluorescence emissions from each sample were measured at an excitation wavelength of 530 nm and an emission wavelength of 590 nm using an Envision fluorescent plate reader with a rhodamine filter (PerkinElmer Life and Analytical Sciences; Wellesley, Mass.). The assay is capable of detecting 0.1-2.0 μM PIP3 product. The IC50 values were obtained by fitting the dose-dependent inhibition data to a 4-parameter equation using Assay Explorer software (MDL, San Ramon, Calif.).
Sequence of p110 delta (O00329 whole entry, canonical isoform): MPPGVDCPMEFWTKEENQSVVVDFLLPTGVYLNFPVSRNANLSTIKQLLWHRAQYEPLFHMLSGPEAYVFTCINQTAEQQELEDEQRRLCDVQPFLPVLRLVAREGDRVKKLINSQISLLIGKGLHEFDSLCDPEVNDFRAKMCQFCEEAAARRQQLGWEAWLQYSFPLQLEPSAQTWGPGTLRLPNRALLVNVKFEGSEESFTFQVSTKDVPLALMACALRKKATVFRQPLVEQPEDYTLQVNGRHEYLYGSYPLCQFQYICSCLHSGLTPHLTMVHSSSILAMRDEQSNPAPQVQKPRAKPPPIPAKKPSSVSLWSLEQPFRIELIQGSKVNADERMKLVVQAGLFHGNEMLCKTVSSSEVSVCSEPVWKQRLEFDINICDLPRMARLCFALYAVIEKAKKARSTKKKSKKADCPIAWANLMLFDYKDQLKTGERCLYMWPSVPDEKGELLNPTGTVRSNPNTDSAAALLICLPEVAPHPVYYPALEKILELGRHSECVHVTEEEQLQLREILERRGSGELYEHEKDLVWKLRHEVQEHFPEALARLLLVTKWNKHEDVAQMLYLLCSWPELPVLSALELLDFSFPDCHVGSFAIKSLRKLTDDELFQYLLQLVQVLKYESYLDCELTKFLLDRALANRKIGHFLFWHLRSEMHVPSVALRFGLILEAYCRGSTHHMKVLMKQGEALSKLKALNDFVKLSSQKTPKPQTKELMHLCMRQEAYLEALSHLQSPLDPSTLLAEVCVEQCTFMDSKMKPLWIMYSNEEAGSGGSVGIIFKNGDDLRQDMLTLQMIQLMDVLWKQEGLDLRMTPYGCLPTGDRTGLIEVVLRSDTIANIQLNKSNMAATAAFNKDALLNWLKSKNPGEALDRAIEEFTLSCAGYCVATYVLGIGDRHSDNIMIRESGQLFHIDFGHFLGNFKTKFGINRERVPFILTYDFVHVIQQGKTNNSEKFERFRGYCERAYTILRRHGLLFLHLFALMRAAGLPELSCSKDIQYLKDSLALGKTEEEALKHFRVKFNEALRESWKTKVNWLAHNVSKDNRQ
Sequence of p110 delta (P27986 whole entry partner, canonical isoform): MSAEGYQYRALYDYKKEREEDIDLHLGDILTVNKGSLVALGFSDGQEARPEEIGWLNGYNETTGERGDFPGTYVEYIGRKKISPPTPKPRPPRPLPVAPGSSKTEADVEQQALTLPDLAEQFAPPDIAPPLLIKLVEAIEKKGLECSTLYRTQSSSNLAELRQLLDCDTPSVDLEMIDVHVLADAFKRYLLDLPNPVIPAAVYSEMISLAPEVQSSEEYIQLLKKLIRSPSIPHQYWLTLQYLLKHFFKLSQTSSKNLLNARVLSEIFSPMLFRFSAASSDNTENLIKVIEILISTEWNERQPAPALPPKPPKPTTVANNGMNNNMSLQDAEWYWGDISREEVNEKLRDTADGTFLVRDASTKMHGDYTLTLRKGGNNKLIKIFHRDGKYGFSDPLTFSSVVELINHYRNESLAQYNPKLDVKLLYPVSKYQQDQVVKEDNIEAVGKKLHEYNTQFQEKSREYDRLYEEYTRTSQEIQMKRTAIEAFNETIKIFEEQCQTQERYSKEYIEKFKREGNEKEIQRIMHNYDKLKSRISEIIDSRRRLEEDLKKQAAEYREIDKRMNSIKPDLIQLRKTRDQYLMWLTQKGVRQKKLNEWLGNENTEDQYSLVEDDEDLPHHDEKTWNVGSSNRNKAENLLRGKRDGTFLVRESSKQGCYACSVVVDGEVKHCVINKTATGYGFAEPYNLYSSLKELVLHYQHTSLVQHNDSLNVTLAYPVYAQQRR
The Formula I compound was serially diluted in 100% DMSO. The kinase reaction was incubated for 1 h at room temperature, and the reaction was terminated by the addition of PBS. IC50 values were subsequently determined using sigmoidal dose-response curve fit (variable slope).
(§2) The four Class I PI 3-kinases are cloned into baculovirus vectors as follows: […]
For orientation: Polarisation of emitted light reports the rotation of a fluorescent probe.

In the next assay the target is p110 alpha (Homo sapiens (Human), UniProt P42336). Description: PI3K isoform inhibition assay, p110 alpha (for alpha/delta selectivity). The following applies: ratio of biochemical IC50 values. Here is the method:
as §1
The same protocol may be used to establish IC50 values for p110α (alpha) PI3K binding.
as §2

SMILES strings stand for the structures.

Sequence of p110 alpha (P42336 whole entry, canonical isoform): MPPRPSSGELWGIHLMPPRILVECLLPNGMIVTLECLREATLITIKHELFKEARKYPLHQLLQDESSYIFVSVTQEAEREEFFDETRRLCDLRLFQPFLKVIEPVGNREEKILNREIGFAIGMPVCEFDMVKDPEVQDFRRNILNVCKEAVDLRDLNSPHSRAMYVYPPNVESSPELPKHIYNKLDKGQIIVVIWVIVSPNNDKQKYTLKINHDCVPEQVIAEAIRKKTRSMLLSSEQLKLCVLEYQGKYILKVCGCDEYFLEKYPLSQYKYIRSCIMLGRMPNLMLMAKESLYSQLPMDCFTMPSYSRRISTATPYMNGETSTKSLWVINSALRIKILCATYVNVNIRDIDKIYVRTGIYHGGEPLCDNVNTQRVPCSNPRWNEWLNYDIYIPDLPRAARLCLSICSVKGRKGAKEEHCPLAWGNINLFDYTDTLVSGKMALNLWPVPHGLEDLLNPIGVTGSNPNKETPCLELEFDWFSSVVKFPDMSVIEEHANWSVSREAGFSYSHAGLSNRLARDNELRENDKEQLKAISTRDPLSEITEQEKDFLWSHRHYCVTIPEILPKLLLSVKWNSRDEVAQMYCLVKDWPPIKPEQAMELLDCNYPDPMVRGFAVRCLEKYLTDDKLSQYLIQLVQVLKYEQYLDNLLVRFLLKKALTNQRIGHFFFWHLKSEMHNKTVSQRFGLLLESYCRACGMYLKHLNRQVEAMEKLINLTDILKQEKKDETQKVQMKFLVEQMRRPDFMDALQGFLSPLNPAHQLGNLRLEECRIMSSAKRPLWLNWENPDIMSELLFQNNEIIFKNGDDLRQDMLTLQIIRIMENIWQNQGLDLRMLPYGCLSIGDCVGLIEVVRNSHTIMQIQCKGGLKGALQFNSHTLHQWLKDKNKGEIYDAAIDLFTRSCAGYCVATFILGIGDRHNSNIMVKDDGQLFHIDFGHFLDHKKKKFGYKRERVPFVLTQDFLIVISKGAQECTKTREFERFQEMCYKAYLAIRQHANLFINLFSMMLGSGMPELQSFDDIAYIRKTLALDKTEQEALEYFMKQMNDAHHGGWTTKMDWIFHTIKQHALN
Sequence of p110 alpha (P27986 whole entry partner, canonical isoform): as the sequence (P27986 whole entry partner, canonical isoform) above

In turn, `CC(C)n1ncnc1-c1cn2c(n1)-c1cnc(N3CCCC3CN3CCCC3)cc1OCC2` (stereo not drawn) [Example 105, 2-(1-isopropyl-1H-1,2,4-triazol-5-yl)-9-(2-(pyrrolidin-1-ylmethyl)pyrrolidin-1-yl)-5,6-dihydroimidazo[1,2-d]pyrido[3,4-f][1,4]oxazepine] registered a concentration for half-maximal inhibition (IC50) on p110 delta of 0.707 nM. Moreover, on p110 alpha, the “IC50 p110 alpha/IC50 p110 delta” value is reported as 18.3.
On to `CC(C)n1ncnc1-c1cn2c(n1)-c1cnc(N3CCCC3C3CCN(C)CC3)cc1OCC2` (stereo not drawn) [Example 106, 2-(1-isopropyl-1H-1,2,4-triazol-5-yl)-9-(2-(1-methylpiperidin-4-yl)pyrrolidin-1-yl)-5,6-dihydroimidazo[1,2-d]pyrido[3,4-f][1,4]oxazepine], for which, on p110 delta, the IC50 was 0.541 nM. In addition, on p110 alpha, the “IC50 p110 alpha/IC50 p110 delta” value came out at 25.7.
The like results for `CC(C)n1ncnc1-c1cn2c(n1)-c1ccc(-c3ccccc3S(N)(=O)=O)cc1OCC2` [Example 109, 2-(2-(1-isopropyl-1H-1,2,4-triazol-5-yl)-5,6-dihydrobenzo[f]imidazo[1,2-d][1,4]oxazepin-9-yl)benzenesulfonamide] were, in that order, 14 nM and 17.3.
The like results for `Cc1nc(-c2cn3c(n2)-c2ccc(-c4ncnn4C4CCN(C(C)(C)C)CC4)cc2OCC3)n(C(C)C)n1` [Example 258, 9-(1-(1-tert-butylpiperidin-4-yl)-1H-1,2,4-triazol-5-yl)-2-(1-isopropyl-3-methyl-1H-1,2,4-triazol-5-yl)-5,6-dihydrobenzo[f]imidazo[1,2-d][1,4]oxazepine] were, in that order, 82.1 nM and 10.2.
`Cc1nc(-c2cn3c(n2)-c2ccc(OC4(CN5CCN(C)CC5)CC4)cc2OCC3)n(C(C)C)n1` [Example 259, 2-(1-isopropyl-3-methyl-1H-1,2,4-triazol-5-yl)-9-(1-((4-methylpiperazin-1-yl)methyl)cyclopropoxy)-5,6-dihydrobenzo[f]imidazo[1,2-d][1,4]oxazepine] registered an IC50 on p110 delta of 3.31 nM. In addition, at p110 alpha, the “IC50 p110 alpha/IC50 p110 delta” value is reported as 26.1.
On p110 delta, `Cc1nc(-c2cn3c(n2)-c2ccc(OC4CC(C)CN(C(C)C)C4)cc2OCC3)n(C(C)C)n1` (stereo not drawn) [Example 260, 2-(1-isopropyl-3-methyl-1H-1,2,4-triazol-5-yl)-9-(1-isopropyl-5-methylpiperidin-3-yloxy)-5,6-dihydrobenzo[f]imidazo[1,2-d][1,4]oxazepine] came in with a concentration for half-maximal inhibition (IC50) of 2.56 nM. Also, the “IC50 p110 alpha/IC50 p110 delta” value at p110 alpha amounted to 12.8.
The corresponding values for `Cc1nc(-c2cn3c(n2)-c2ccc(OC4(C)CCN(C(C)C)C4)cc2OCC3)n(C(C)C)n1` (stereo not drawn) [Example 261, 2-(1-isopropyl-3-methyl-1H-1,2,4-triazol-5-yl)-9-(1-isopropyl-3-methylpyrrolidin-3-yloxy)-5,6-dihydrobenzo[f]imidazo[1,2-d][1,4]oxazepine] are 0.638 nM and 14.4.
Compound `Cc1nc(-c2cn3c(n2)-c2ccc(-c4ccnn4C4CCCN(Cc5ccccc5)C4)cc2OCC3)n(C(C)C)n1` (stereo not drawn) [Example 262, 9-(1-(1-benzylpiperidin-3-yl)-1H-pyrazol-5-yl)-2-(1-isopropyl-3-methyl-1H-1,2,4-triazol-5-yl)-5,6-dihydrobenzo[f]imidazo[1,2-d][1,4]oxazepine] yielded an IC50 at p110 delta of 8.53 nM. For the same compound, on p110 alpha, the “IC50 p110 alpha/IC50 p110 delta” value was found to be 21.8.
The like results for `Cc1cc2c(cc1-c1ccnn1C1CCN(C)CC1)OCCn1cc(-c3ncnn3C(C)C)nc1-2` [Example 264, 2-(1-isopropyl-1H-1,2,4-triazol-5-yl)-10-methyl-9-(1-(1-methylpiperidin-4-yl)-1H-pyrazol-5-yl)-5,6-dihydrobenzo[f]imidazo[1,2-d][1,4]oxazepine] were, in that order, 17.3 nM and 10.
`Cc1nc(-c2cn3c(n2)-c2ccc(-c4ccnn4C4CCN(C(C)(C)C)CC4)cc2OCC3)n(C(C)C)n1` [Example 269, 9-[2-(1-tert-butyl-4-piperidyl)pyrazol-3-yl]-2-(2-isopropyl-5-methyl-1,2,4-triazol-3-yl)-5,6-dihydroimidazo[1,2-d][1,4]benzoxazepine] registered an IC50 on p110 delta of 4.57 nM. For the same compound, the “IC50 p110 alpha/IC50 p110 delta” value at p110 alpha came out at 9.8.
In the case of `CC(C)n1ncnc1-c1cn2c(n1)-c1cc([S+]([O-])C3CCN(C(C)(C)C)CC3)ccc1OCC2` (stereo not drawn) [Example 270, 10-(1-tert-butylpiperidin-4-ylsulfinyl)-2-(1-isopropyl-1H-1,2,4-triazol-5-yl)-5,6-dihydrobenzo[f]imidazo[1,2-d][1,4]oxazepine], the IC50 at p110 delta amounted to 0.811 nM. In addition, the “IC50 p110 alpha/IC50 p110 delta” value on p110 alpha came to 184.
The corresponding values for `Cc1nc(-c2cn3c(n2)-c2ccc(OC4(C)CNC4)cc2OCC3)n(C(C)C)n1` [Example 271, 2-(2-isopropyl-5-methyl-1,2,4-triazol-3-yl)-9-(3-methylazetidin-3-yl)oxy-5,6-dihydroimidazo[1,2-d][1,4]benzoxazepine] are 0.633 nM and 9.8.
The like results for `Cc1nc(-c2cn3c(n2)-c2ccc(N4CCCC4C4CCN(CC(C)(C)O)CC4)cc2OCC3)n(C(C)C)n1` (stereo not drawn) [Example 272, 1-[4-[1-[2-(2-isopropyl-5-methyl-1,2,4-triazol-3-yl)-5,6-dihydroimidazo[1,2-d][1,4]benzoxazepin-9-yl]pyrrolidin-2-yl]-1-piperidyl]-2-methyl-propan-2-ol] were, in that order, 0.986 nM and 49.9.
In turn, `Cc1nc(-c2cn3c(n2)-c2cc(C(=O)N4CCN(C(C)(C)C)CC4)c(F)cc2OCC3)n(C(C)C)n1` [Example 273, (4-tert-butylpiperazin-1-yl)-[9-fluoro-2-(2-isopropyl-5-methyl-1,2,4-triazol-3-yl)-5,6-dihydroimidazo[1,2-d][1,4]benzoxazepin-10-yl]methanone] had a 50% inhibitory concentration (IC50) at p110 delta of 2.73 nM. Also, the “IC50 p110 alpha/IC50 p110 delta” value at p110 alpha is on record as 69.9.
The corresponding values for `Cc1nc(-c2cn3c(n2)-c2ccc(N4CCCC4C4CCN(CC(C)(C)O)CC4)cc2OCC3)n(C(C)C)n1` (stereo not drawn) [Example 274, 1-[4-[1-[2-(2-isopropyl-5-methyl-1,2,4-triazol-3-yl)-5,6-dihydroimidazo[1,2-d][1,4]benzoxazepin-9-yl]pyrrolidin-2-yl]-1-piperidyl]-2-methyl-propan-2-ol] are 2.2 nM and 34.
In turn, `Cc1nc(-c2cn3c(n2)-c2ccc(OC4(c5ccccc5)CN(C(C)C)C4)cc2OCC3)n(C(C)C)n1` [Example 275, 2-(2-isopropyl-5-methyl-1,2,4-triazol-3-yl)-9-(1-isopropyl-3-phenyl-azetidin-3-yl)oxy-5,6-dihydroimidazo[1,2-d][1,4]benzoxazepine] displayed an IC50 at p110 delta of 6.2 nM. Moreover, the “IC50 p110 alpha/IC50 p110 delta” value on p110 alpha stood at 17.
The like results for `Cc1nc(-c2cn3c(n2)-c2cc(C(O)C4CCN(C)CC4)ccc2OCC3)n(C(C)C)n1` (stereo not drawn) [Example 276, [2-(2-isopropyl-5-methyl-1,2,4-triazol-3-yl)-5,6-dihydroimidazo[1,2-d][1,4]benzoxazepin-10-yl]-(1-methyl-4-piperidyl)methanol] were, in that order, 17.9 nM and 10.8.
The corresponding values for `Cc1nc(-c2cn3c(n2)-c2ccc(-c4cnn(C(C)C)c4CN4CCN(C(C)(C)C)CC4)cc2OCC3)n(C(C)C)n1` [Example 277, 9-[5-[(4-tert-butylpiperazin-1-yl)methyl]-1-isopropyl-pyrazol-4-yl]-2-(2-isopropyl-5-methyl-1,2,4-triazol-3-yl)-5,6-dihydroimidazo[1,2-d][1,4]benzoxazepine] are 4 nM and 27.8.
In turn, `Cc1nc(-c2cn3c(n2)-c2ccc(-c4cnn(C(C)C)c4CN4CCN(C)CC4)cc2OCC3)n(C(C)C)n1` [Example 278, 9-[1-isopropyl-5-[(4-methylpiperazin-1-yl)methyl]pyrazol-4-yl]-2-(2-isopropyl-5-methyl-1,2,4-triazol-3-yl)-5,6-dihydroimidazo[1,2-d][1,4]benzoxazepine] came in with an IC50 at p110 delta of 3.34 nM. Moreover, the “IC50 p110 alpha/IC50 p110 delta” value on p110 alpha stood at 33.4.
The corresponding values for `Cc1nc(-c2cn3c(n2)-c2ccc(-c4cn(C)nc4C4CCCN(C(C)C)C4)cc2OCC3)n(C(C)C)n1` (stereo not drawn) [Example 280, 2-(2-isopropyl-5-methyl-1,2,4-triazol-3-yl)-9-[3-(1-isopropyl-3-piperidyl)-1-methyl-pyrazol-4-yl]-5,6-dihydroimidazo[1,2-d][1,4]benzoxazepine] are 0.878 nM and 32.7.
The corresponding values for `Cc1nc(-c2cn3c(n2)-c2cc(C(=O)N4CCN(C(C)(C)CO)CC4)c(F)cc2OCC3)n(C(C)C)n1` [Example 281, [9-fluoro-2-(2-isopropyl-5-methyl-1,2,4-triazol-3-yl)-5,6-dihydroimidazo[1,2-d][1,4]benzoxazepin-10-yl]-[4-(2-hydroxy-1,1-dimethyl-ethyl)piperazin-1-yl]methanone] are 5.63 nM and 30.6.

The IC50 is the concentration that gives 50% inhibition. A higher IC50 goes with lower potency.
